Key:
VIPR2 = target: T1, VIPR2 (Mus musculus, UniProt P41588); experiment: ILC3 in vitro cell culture with VIPR2 ligands, IL-22 and Sca-1 by flow cytometry; type: cell-based, mice; conditions: IL-23 100 pg/mL, 12 h, different concentrations of ligand
T1 construct: endogenous in cells; host or cells: primary CCR6+ ILC3 sorted from small-intestine lamina propria of C57BL/6 mice
T1 sequence (P41588 23-437): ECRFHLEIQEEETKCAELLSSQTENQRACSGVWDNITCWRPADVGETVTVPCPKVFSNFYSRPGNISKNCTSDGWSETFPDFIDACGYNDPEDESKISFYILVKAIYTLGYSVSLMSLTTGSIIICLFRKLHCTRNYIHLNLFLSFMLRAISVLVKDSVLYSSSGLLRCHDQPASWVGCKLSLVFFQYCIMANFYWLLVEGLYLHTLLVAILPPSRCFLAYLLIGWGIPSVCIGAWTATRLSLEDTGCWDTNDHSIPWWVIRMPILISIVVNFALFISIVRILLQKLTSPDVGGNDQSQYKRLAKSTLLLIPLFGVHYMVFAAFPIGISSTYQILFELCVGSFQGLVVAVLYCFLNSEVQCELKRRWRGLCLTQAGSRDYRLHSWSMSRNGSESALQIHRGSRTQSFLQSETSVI
Experimental: CCR6^+ and CCR6^neg ILC3 (DAPI^negCD3^negCD11c^negCD14^negCD19^negTCRβ^negTCRγ^negNK1.19KLRG1^negCD127^+CD90.2^+) were isolated from small intestine LPLs of C57BL/6 mice using the ARIA II FACS Sorter (BD Biosciences). ILC3 were cultured at 37° C. in flat bottom 96 well plates (10^4 cells/well) in RPMI supplemented with 10% heat-inactivated FBS (Hyclone), 50 U penicillin-streptomycin (Hyclone), 2 mM glutamine (Hyclone), 10 mM HEPES (Hyclone), 1 mM sodium pyruvate (Hyclone) and 50 μM β-mercaptoethanol (Gibco). ILC3 were stimulated with IL-23 (100 pg/mL, R&D systems) and/or VIPR2 ligands (BAY-559837: 1-100 nM, and VIP: 1 nM, […]), washed, incubated in complete media in the presence of Golgi Plug (BD Bioscience) for 4 h (37° C.), and stained for membrane extracellular markers in Staining Buffer (PBS FBS2% EDTA 5 mM) and for intracellular markers using Cytofix/Cytoperm buffer set following manufacturer's protocol (BD Biosciences). Acquisition of cytometric parameters was performed on an LSRII (BD Biosciences). All data were analyzed using FlowJo Software Version 10 (Tree Star).
(§1) Live/dead fixable blue (ThermoFisher) or DAPI (ThermoFisher) were used to exclude dead cells. […] Flow cytometric analysis was performed on an LSR II (BD Biosciences) or an Aria II (BD Biosciences) and analyzed using FlowJo software version 10 (Tree Star).

hM4Di = target: T2, hM4Di (Homo sapiens, UniProt P08173, A203G/Y113C); experiment: VIPen inhibition with inhibitory DREADD (hM4Di), 24 h; type: in vivo, mice; conditions: versus vehicle
T2 construct: host or cells: VIP-producing enteric neurons of Vip-IRES-Cre x hM4Di fl-stop-fl transgenic mice (in vivo)
T2 sequence (P08173 1-479 Y113C/A203G): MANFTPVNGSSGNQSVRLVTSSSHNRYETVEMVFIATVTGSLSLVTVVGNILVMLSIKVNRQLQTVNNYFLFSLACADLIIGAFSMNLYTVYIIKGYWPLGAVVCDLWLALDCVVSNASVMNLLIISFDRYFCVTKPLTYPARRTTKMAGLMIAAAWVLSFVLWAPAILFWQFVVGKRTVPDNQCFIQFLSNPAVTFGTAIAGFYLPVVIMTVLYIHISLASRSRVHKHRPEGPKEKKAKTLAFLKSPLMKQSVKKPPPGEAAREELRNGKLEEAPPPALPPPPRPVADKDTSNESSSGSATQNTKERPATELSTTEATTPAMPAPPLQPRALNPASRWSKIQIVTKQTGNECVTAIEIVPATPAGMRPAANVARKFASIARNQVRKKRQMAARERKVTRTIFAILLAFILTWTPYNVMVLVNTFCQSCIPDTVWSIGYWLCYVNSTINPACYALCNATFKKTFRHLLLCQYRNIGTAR
Experimental: (§2) To perform chemogenetic activation or inhibition of VIPen, we bred VIP^IRES-Cre homozygous mice to hM3Dq^fl-stop-fl mice (DREADD for activation) or hM4Di^fl-stop-fl bp-mice (DREADD for inhibition), generating VIP^IRES-Cre hM3Dq^fl-stop-fl (VIPen activation) and VIP^IRES-Cre hM3Dq^fl-stop-flhM4Di^fl-stop-fl mice (VIPen inhibition). To perform 24 h activation of the DREADDs, mice were treated with Clozapine-N-Oxide (CNO, 1 mg/Kg intraperitoneally, TOCRIS) each 12 h. […] To perform activation of the DREADDs during Citrobacter rodentium infection, mice were treated daily with CNO (1 mg/Kg, intraperitoneally) from day 1 to day 4 after infection. […]
as §1
(§3) TRNA isolation of ileal epithelial cells was performed using TRIzol following manufacturer's instructions (Invitrogen) followed by DNase I (Qiagen) treatment and cleanup with RNeasy MinElute kit (Qiagen) following manufacturer protocols. cDNA was generated using SuperScript™ IV First-Strand Synthesis System (ThermoFisher). […] Quantitative PCR was performed using the Hot Start-IT SYBRGreen (Affymetrix) on the Roche real-time PCR system (Roche 480). […]

hM3Dq = target: T3, hM3Dq (Homo sapiens, UniProt P20309, A239G/Y149C); experiment: VIPen activation with activating DREADD (hM3Dq), 24 h; type: in vivo, mice; conditions: following VIPen activation, versus vehicle
T3 construct: host or cells: VIP-producing enteric neurons of Vip-IRES-Cre x hM3Dq fl-stop-fl transgenic mice (in vivo)
T3 sequence (P20309 whole entry Y149C/A239G): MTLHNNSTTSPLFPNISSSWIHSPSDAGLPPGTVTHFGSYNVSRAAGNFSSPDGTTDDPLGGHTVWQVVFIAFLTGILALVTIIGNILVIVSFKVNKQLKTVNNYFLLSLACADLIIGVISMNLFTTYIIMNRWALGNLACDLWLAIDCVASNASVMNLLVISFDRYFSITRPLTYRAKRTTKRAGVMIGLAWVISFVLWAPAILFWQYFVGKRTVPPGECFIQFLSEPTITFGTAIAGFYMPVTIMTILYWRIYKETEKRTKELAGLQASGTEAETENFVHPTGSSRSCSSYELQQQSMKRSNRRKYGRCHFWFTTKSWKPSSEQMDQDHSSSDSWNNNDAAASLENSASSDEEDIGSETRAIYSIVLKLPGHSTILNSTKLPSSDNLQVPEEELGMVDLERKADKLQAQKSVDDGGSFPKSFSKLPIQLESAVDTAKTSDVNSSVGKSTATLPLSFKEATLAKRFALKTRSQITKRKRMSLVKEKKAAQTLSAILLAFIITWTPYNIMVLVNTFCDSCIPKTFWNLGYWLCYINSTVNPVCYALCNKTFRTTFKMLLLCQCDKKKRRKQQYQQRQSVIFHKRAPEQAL
Experimental: as §2, §1, §3

C. rodentium [1] = experiment: C. rodentium infection of Vip-IRES-Cre hM3Dq mice (VIPen activation); type: in vivo, Citrobacter rodentium; conditions: for bacterial dissemination (translocation) induced by VIPen activation / mortality induced by VIPen activation: 250 pg/mouse/day, C. rodentium-infected hM3Dq mice with VIPen activation
Experimental: (§4) To perform chemogenetic activation or inhibition of VIPen, we bred VIP^IRES-Cre homozygous mice to hM3Dq^fl-stop-fl mice (DREADD for activation) or hM4Di^fl-stop-fl bp-mice (DREADD for inhibition), generating VIP^IRES-Cre hM3Dq^fl-stop-fl (VIPen activation) and VIP^IRES-Cre hM3Dq^fl-stop-flhM4Di^fl-stop-fl mice (VIPen inhibition). To perform 24 h activation of the DREADDs, mice were treated with Clozapine-N-Oxide (CNO, 1 mg/Kg intraperitoneally, TOCRIS) each 12 h. […] To perform activation of the DREADDs during Citrobacter rodentium infection, mice were treated daily with CNO (1 mg/Kg, intraperitoneally) from day 1 to day 4 after infection.
(§5) C. rodentium strain DBS100 (ATCC51459; American Type Culture Collection) was grown at 37° C. in LB broth to OD600 reading between 0.5 and 0.7. VIP^IRES-CrehM3Dq^fl-stop-fl (VIPen activation) and C57BL/6 mice were inoculated with 200 μl of a bacterial suspension (2×10^9 CFU) by oral gavage. VIP^IRES-Cre hM3Dq^fl-stop-flhM4Di^fl-stop-fl mice (VIPen inhibition) were inoculated with 200 μl of a bacterial suspension (4×10^10 CFU) by oral gavage. For DREADD experiments, CNO treatment started at 1 day post-infection (d.p.i.) until 4 d.p.i. Mice were followed the next 12 days post-infection (d.p.i.) to measure survival rate. At 9 d.p.i. fecal pellets were collected and the mice dissected to harvest spleen and liver. Samples were weighted and minced on sterile deionized water with Triton 0.1% and filtered on a 70 μm cell strainer. The filtered samples were used to measure C. rodentium burden with serial dilutions (triplicates) on MacConkey agar plates.

C. rodentium [2] = experiment: C. rodentium infection of Vip-IRES-Cre hM4Di mice (VIPen inhibition); type: in vivo, Citrobacter rodentium; conditions: 1 mg/Kg daily 1-4 d.p.i., 4×10^10 CFU, 9 d.p.i., mice positive/total
Experimental: as §4
as §5, with “Samples were weighted and minced on sterile deionized water with Triton 0.1% and filtered on a 70 μm cell strainer. The filtered samples were used to measure C. rodentium burden with serial dilutions (triplicates) on MacConkey agar plates.” left out

ILC3 = experiment: Pilot experiments with CNO in C57BL/6 mice; type: in vivo; conditions: 1 mg/Kg intraperitoneally each 12 h, C57BL/6 mice without DREADD, data not shown
[3] = 1 mg/Kg daily 1-4 d.p.i., 2×10^9 CFU, 9 d.p.i., mice positive/total
[4] = listed as recombinant murine IL-22

Molecule: vasoactive intestinal peptide [VIP]
- IL-23-induced Sca-1 expression on CCR6+ ILC3 (VIPR2): does not modulate

Molecule: C[N+]1([O-])CCN(C2=Nc3cc(Cl)ccc3Nc3ccccc32)CC1 [CNO, Clozapine-N-oxide]
- RegIIIγ mRNA expression in the IECs (hM4Di; after VIPen inhibition, 24 h): increased
- frequency of IL-22-producing CCR6+ ILC3 (hM4Di; ileum, 24 h following VIPen inhibition): higher frequency
- IL-22+ cells among the CCR6+ ILC3 (hM3Dq): fewer
- RegIIIγ mRNA in IECs (hM3Dq): lower
- Positive for C. rodentium: liver (C. rodentium [1]; [3]): 9/9
- Positive for C. rodentium: spleen (C. rodentium [1]; [3]): 9/9
- Positive for C. rodentium: liver (C. rodentium [2]): 1/7
- Positive for C. rodentium: spleen (C. rodentium [2]): 1/7
- ILC3 function (ILC3): does not affect

B1: rmIL-22: recombinant murine IL-22 (protein, UniProt Q9JJY9 34-179, looked up)
Interleukin-22: LPVNTRCKLEVSNFQQPYIVNRTFMLAKEASLADNNTDVRLIGEKLFRGVSAKDQCYLMKQVLNFTLEDVLLPQSDRFQPYMQEVVPFLTKLSNQLSSCHISGDDQNIQKNVRRLKETVKKLGESGEIKAIGELDLLFMSLRNACV
- bacterial dissemination (translocation) induced by VIPen activation (C. rodentium [1]): protects against increase
- mortality induced by VIPen activation (C. rodentium [1]): protects against increase
- bacterial dissemination (translocation) induced by VIPen activation (C. rodentium [1]; [4]): reversed the effect
- mortality induced by VIPen activation (C. rodentium [1]; [4]): reversed the effect

— patent US11918626B2, “Vasointestinal peptide receptor inhibitors for enhancement of gastrointestinal health” (New York University, priority 2019, dated 2024)
